Measured values as given in PubChem BioAssay (NCI).
Where “and” joins values, the source holds several entries; their conditions need not be identical. Equal entries are not always repeated.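 Compound exposure: 48 hours, 5 concentrations, 96-well plates. GI50 marks 50% less growth. Definition used: TGI = concentration required for complete inhibition of growth.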

Key:
Experiment in all cases: inhibition of tumour cell growth, NCI panel, 48 h
COLO 205 colon = test system: COLO 205 colon
IGROV1 ovarian = test system: IGROV1 ovarian
A498 renal = test system: A498 renal
CAKI-1 renal = test system: CAKI-1 renal
SF-539 CNS = test system: SF-539 CNS
OVCAR-5 ovarian = test system: OVCAR-5 ovarian
SK-OV-3 ovarian = test system: SK-OV-3 ovarian
OVCAR-8 ovarian = test system: OVCAR-8 ovarian
786-0 renal = test system: 786-0 renal
HCC-2998 colon = test system: HCC-2998 colon
SN12C renal = test system: SN12C renal
SK-MEL-2 melanoma = test system: SK-MEL-2 melanoma
OVCAR-4 ovarian = test system: OVCAR-4 ovarian
U251 CNS = test system: U251 CNS
HOP-92 NSCLC = test system: HOP-92 NSCLC
NCI-H23 lung = test system: NCI-H23 lung
MCF7 breast = test system: MCF7 breast
SR leukemia = test system: SR leukemia
UO-31 renal = test system: UO-31 renal
PC-3 prostate = test system: PC-3 prostate
LOX IMVI melanoma = test system: LOX IMVI melanoma
HCT-116 colon = test system: HCT-116 colon
A549 NSCLC = test system: A549 NSCLC
MDA-N = test system: MDA-N
MOLT-4 leukemia = test system: MOLT-4 leukemia
HS 578T breast = test system: HS 578T breast
NCI-H522 lung = test system: NCI-H522 lung
HT29 colon = test system: HT29 colon
SK-MEL-28 melanoma = test system: SK-MEL-28 melanoma
RXF 393 renal = test system: RXF 393 renal
HCT-15 colon = test system: HCT-15 colon
SF-295 CNS = test system: SF-295 CNS
NCI-H460 lung = test system: NCI-H460 lung
UACC-257 melanoma = test system: UACC-257 melanoma
CCRF-CEM leukemia = test system: CCRF-CEM leukemia
UACC-62 melanoma = test system: UACC-62 melanoma
NCI/ADR-RES ovarian = test system: NCI/ADR-RES ovarian
HOP-62 NSCLC = test system: HOP-62 NSCLC
SNB-19 CNS = test system: SNB-19 CNS
KM12 colon = test system: KM12 colon
BT-549 breast = test system: BT-549 breast
MALME-3M melanoma = test system: MALME-3M melanoma
RPMI-8226 leukemia = test system: RPMI-8226 leukemia
HL-60(TB) leukemia = test system: HL-60(TB) leukemia
MDA-MB-231 breast = test system: MDA-MB-231 breast
NCI-H226 lung = test system: NCI-H226 lung
SNB-75 CNS = test system: SNB-75 CNS
OVCAR-3 ovarian = test system: OVCAR-3 ovarian
K-562 leukemia = test system: K-562 leukemia
M14 melanoma = test system: M14 melanoma
SW-620 colon = test system: SW-620 colon
T-47D breast = test system: T-47D breast
DU-145 prostate = test system: DU-145 prostate
ACHN renal = test system: ACHN renal
MDA-MB-435 = test system: MDA-MB-435
TK-10 renal = test system: TK-10 renal
EKVX NSCLC = test system: EKVX NSCLC
SF-268 CNS = test system: SF-268 CNS
SK-MEL-5 melanoma = test system: SK-MEL-5 melanoma

Compound: COc1cc(/C=C2/SC(c3ccccc3)N(c3ccc(Cl)cc3)C2=O)cc(OC)c1OC (stereo not drawn)
- TGI (COLO 205 colon): > 42600 nM
- TGI (IGROV1 ovarian): > 100 µM
- TGI (A498 renal): > 100 µM
- TGI (CAKI-1 renal): > 100 µM
- TGI (SF-539 CNS): > 100 µM
- TGI (OVCAR-5 ovarian): > 100 µM
- TGI (SK-OV-3 ovarian): > 100 µM
- TGI (OVCAR-8 ovarian): > 100 µM
- TGI (786-0 renal): > 100 µM
- TGI (HCC-2998 colon): > 100 µM
- TGI (SN12C renal): > 100 µM
- TGI (SK-MEL-2 melanoma): > 100 µM
- TGI (OVCAR-4 ovarian): > 100 µM
- TGI (U251 CNS): > 100 µM
- TGI (HOP-92 NSCLC): > 100 µM
- TGI (NCI-H23 lung): > 100 µM
- TGI (MCF7 breast): > 100 µM
- TGI (SR leukemia): > 100 µM
- TGI (UO-31 renal): > 100 µM
- TGI (PC-3 prostate): > 100 µM
- TGI (LOX IMVI melanoma): > 100 µM
- TGI (HCT-116 colon): > 100 µM
- TGI (A549 NSCLC): > 100 µM
- TGI (MDA-N): 31.8 µM
- TGI (MOLT-4 leukemia): > 100 µM
- TGI (HS 578T breast): > 100 µM
- TGI (NCI-H522 lung): > 100 µM
- TGI (HT29 colon): > 100 µM
- TGI (SK-MEL-28 melanoma): > 100 µM
- TGI (RXF 393 renal): > 100 µM
- TGI (HCT-15 colon): > 100 µM
- TGI (SF-295 CNS): > 100 µM
- TGI (NCI-H460 lung): > 100 µM
- TGI (UACC-257 melanoma): > 100 µM
- TGI (CCRF-CEM leukemia): > 44.8 µM
- TGI (UACC-62 melanoma): > 100 µM
- TGI (NCI/ADR-RES ovarian): > 100 µM
- TGI (HOP-62 NSCLC): > 100 µM
- TGI (SNB-19 CNS): > 100 µM
- TGI (KM12 colon): > 100 µM
- TGI (BT-549 breast): > 100 µM
- TGI (MALME-3M melanoma): > 100 µM
- TGI (RPMI-8226 leukemia): > 100 µM
- TGI (HL-60(TB) leukemia): > 100 µM
- TGI (MDA-MB-231 breast): > 100 µM
- TGI (NCI-H226 lung): > 100 µM
- TGI (SNB-75 CNS): > 100 µM
- TGI (OVCAR-3 ovarian): > 100 µM
- TGI (K-562 leukemia): > 100 µM
- TGI (M14 melanoma): > 63.3 µM
- TGI (SW-620 colon): > 100 µM
- TGI (T-47D breast): > 100 µM
- TGI (DU-145 prostate): > 100 µM
- TGI (ACHN renal): > 100 µM
- TGI (MDA-MB-435): 24.2 µM
- TGI (TK-10 renal): > 100 µM
- TGI (EKVX NSCLC): > 100 µM
- TGI (SF-268 CNS): > 100 µM

Compound: COc1cccc2c1cc([N+](=O)[O-])c1c(C(=O)O)cc3c(c12)OCO3
- GI50 (COLO 205 colon): 1120 nM
- TGI (COLO 205 colon): 2800 nM and 2970 nM
- GI50 (IGROV1 ovarian): 34.3 µM
- TGI (IGROV1 ovarian): > 100 µM
- GI50 (A498 renal): 16 µM
- TGI (A498 renal): 32.9 µM and 83.4 µM
- GI50 (CAKI-1 renal): 17.8 µM
- TGI (CAKI-1 renal): > 100 µM
- TGI (SF-539 CNS): > 75.8 µM
- GI50 (OVCAR-5 ovarian): 22.3 µM
- TGI (OVCAR-5 ovarian): > 87.6 µM
- GI50 (SK-OV-3 ovarian): 38.4 µM
- TGI (SK-OV-3 ovarian): > 100 µM
- TGI (OVCAR-8 ovarian): > 100 µM
- GI50 (SK-MEL-5 melanoma): 22.3 µM
- TGI (SK-MEL-5 melanoma): 72.2 µM and > 100 µM
- GI50 (786-0 renal): 27.6 µM
- TGI (786-0 renal): > 100 µM
- GI50 (HCC-2998 colon): 3.91 µM
- TGI (HCC-2998 colon): 18.9 µM and 9.62 µM
- GI50 (SN12C renal): 48.7 µM
- TGI (SN12C renal): > 100 µM
- GI50 (SK-MEL-2 melanoma): 22.9 µM
- TGI (SK-MEL-2 melanoma): 52.3 µM and > 100 µM
- GI50 (OVCAR-4 ovarian): 83.4 µM
- TGI (OVCAR-4 ovarian): > 100 µM
- GI50 (U251 CNS): 22.9 µM
- TGI (U251 CNS): > 100 µM
- GI50 (HOP-92 NSCLC): 23.3 µM
- TGI (HOP-92 NSCLC): 88.3 µM and > 100 µM
- GI50 (NCI-H23 lung): 29.6 µM
- TGI (NCI-H23 lung): > 100 µM
- GI50 (MCF7 breast): 30.7 µM
- TGI (MCF7 breast): > 100 µM
- GI50 (SR leukemia): 24.9 µM
- TGI (SR leukemia): 75.7 µM and 78.9 µM
- GI50 (UO-31 renal): 26.2 µM
- TGI (UO-31 renal): > 100 µM
- GI50 (PC-3 prostate): 27.8 µM
- TGI (PC-3 prostate): > 100 µM
- GI50 (LOX IMVI melanoma): 26.2 µM
- TGI (LOX IMVI melanoma): > 100 µM
- TGI (HCT-116 colon): > 80.6 µM
- GI50 (A549 NSCLC): 25.8 µM
- TGI (A549 NSCLC): > 100 µM
- TGI (MDA-N): > 100 µM
- GI50 (MOLT-4 leukemia): 40.9 µM
- TGI (MOLT-4 leukemia): > 100 µM
- GI50 (HS 578T breast): 36.3 µM
- TGI (HS 578T breast): > 100 µM
- TGI (NCI-H522 lung): > 100 µM
- GI50 (HT29 colon): 352 nM
- TGI (HT29 colon): 2.42 µM and 10.4 µM
- GI50 (SK-MEL-28 melanoma): 46.7 µM
- TGI (SK-MEL-28 melanoma): > 100 µM
- GI50 (RXF 393 renal): 18 µM
- TGI (RXF 393 renal): 40.6 µM and > 56.9 µM
- GI50 (HCT-15 colon): 29.1 µM
- TGI (HCT-15 colon): > 100 µM and 38.6 µM
- GI50 (SF-295 CNS): 17.4 µM
- TGI (SF-295 CNS): > 100 µM
- GI50 (NCI-H460 lung): 18.2 µM
- TGI (NCI-H460 lung): 63.7 µM and > 100 µM
- GI50 (UACC-257 melanoma): 28.7 µM
- TGI (UACC-257 melanoma): > 100 µM
- GI50 (CCRF-CEM leukemia): 28.2 µM
- TGI (CCRF-CEM leukemia): > 100 µM
- TGI (UACC-62 melanoma): > 100 µM
- GI50 (NCI/ADR-RES ovarian): 42.8 µM
- TGI (NCI/ADR-RES ovarian): > 100 µM
- GI50 (HOP-62 NSCLC): 28.4 µM
- TGI (HOP-62 NSCLC): 97.8 µM and > 76.6 µM
- GI50 (SNB-19 CNS): 33.4 µM
- TGI (SNB-19 CNS): > 100 µM
- GI50 (KM12 colon): 24.5 µM
- TGI (KM12 colon): > 87.2 µM
- TGI (BT-549 breast): > 100 µM
- GI50 (MALME-3M melanoma): 31.1 µM
- TGI (MALME-3M melanoma): > 100 µM
- GI50 (RPMI-8226 leukemia): 37.1 µM
- TGI (RPMI-8226 leukemia): > 100 µM
- GI50 (HL-60(TB) leukemia): 35.1 µM
- TGI (HL-60(TB) leukemia): > 100 µM and 51.5 µM
- GI50 (MDA-MB-231 breast): 59.9 µM
- TGI (MDA-MB-231 breast): > 100 µM
- GI50 (NCI-H226 lung): 20 µM
- TGI (NCI-H226 lung): 48.4 µM and > 78.3 µM
- GI50 (SNB-75 CNS): 36 µM
- TGI (SNB-75 CNS): > 100 µM
- GI50 (OVCAR-3 ovarian): 26.1 µM
- TGI (OVCAR-3 ovarian): 71.2 µM and > 100 µM
- GI50 (K-562 leukemia): 46.3 µM
- TGI (K-562 leukemia): > 100 µM
- TGI (M14 melanoma): > 100 µM
- GI50 (SW-620 colon): 28.2 µM
- TGI (SW-620 colon): > 100 µM
- GI50 (T-47D breast): 66.3 µM
- TGI (T-47D breast): > 100 µM
- GI50 (DU-145 prostate): 23 µM
- TGI (DU-145 prostate): > 82.1 µM and 98.7 µM
- GI50 (ACHN renal): 35.2 µM
- TGI (ACHN renal): > 100 µM
- GI50 (MDA-MB-435): 41.5 µM
- TGI (MDA-MB-435): > 100 µM
- GI50 (TK-10 renal): 8.86 µM
- TGI (TK-10 renal): 48.1 µM and > 100 µM
- GI50 (EKVX NSCLC): 26.6 µM
- TGI (EKVX NSCLC): 91.7 µM and > 100 µM
- GI50 (SF-268 CNS): 29 µM
- TGI (SF-268 CNS): > 95.2 µM
